Data: patent US8952024B2, “Herbicidal pyrimidone derivatives” (E I du Pont de Nemours and Company, priority 2009, dated 2015)

Legend:
Assay in all cases: Test B pre-/postemergence plant response
Type in all cases: in vivo
[1] = system: Italian ryegrass (Lolium multiflorum)
In short: (§1)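 Ratings reflect visual comparison with untreated controls 13 to 15 days after application, from 0 (no effect) to 100 (complete control). Application was preemergence to seeded loam/sand soil or postemergence to 1- to 4-leaf plants, with compound in a non-phytotoxic, surfactant-containing solvent.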

[2] = system: Surinam grass (Brachiaria decumbens)
In short: as §1

[3] = system: bermudagrass (Cynodon dactylon)
In short: as §1

[4] = system: blackgrass (Alopecurus myosuroides)
In short: as §1

[5] = system: cocklebur (Xanthium strumarium)
In short: as §1

[6] = system: downy bromegrass (Bromus tectorum)
In short: as §1

kochia (Kochia scoparia) = conditions: Postemergence
In short: as §1

[7] = system: large crabgrass (Digitaria sanguinalis)
In short: as §1

[8] = system: morningglory (Ipomoea coccinea)
In short: as §1

[9] = system: ragweed (common ragweed, Ambrosia elatior)
In short: as §1

[10] = system: wheat (Triticum aestivum)
In short: as §1

wild oat (Avena fatua) = system: wild oat (Avena fatua)
In short: as §1

[11] = system: woolly cupgrass (Eriochloa villosa)
In short: as §1

[12] = Postemergence, 31 g ai/ha, 0 to 100 scale (0 no effect, 100 complete control)
[13] = Postemergence, 62 g ai/ha, scale 0 to 100 (0 no effect, 100 complete control)
[14] = Postemergence, 250 g ai/ha, scale 0 to 100 (0 no effect, 100 complete control), 13 to 15 days
[15] = Preemergence, 31 g ai/ha, scale 0 to 100 (0 no effect, 100 complete control)
[16] = Preemergence, 62 g ai/ha, scale 0 to 100 (0 no effect, 100 complete control)
[17] = Preemergence, 125 g ai/ha, scale 0 to 100, 0 no effect, 100 complete control
[18] = Preemergence, 250 g ai/ha, 0 to 100 scale
[19] = Postemergence, 125 g ai/ha, scale 0 to 100 (0 no effect, 100 complete control)
[20] = 31 g ai/ha, 0 to 100 scale (0 no effect, 100 complete control)
[21] = 125 g ai/ha, scale 0 to 100 (0 no effect, 100 complete control)
[22] = 250 g ai/ha, scale 0 to 100 (0 no effect, 100 complete control), 13 to 15 days
[23] = 62 g ai/ha, postemergence, 0 is no effect, 100 is complete control, 13 to 15 days

For `COc1ccc(-n2c(-c3ccccc3)ncc(C(=O)C3=C(O)CCCC3=O)c2=O)cc1OC` [Compound 218], the “Plant response rating, Ryegrass, Italian” value [1, 12] was 30, the “Plant response rating, Ryegrass, Italian” value [1, 13] was 40 and the “Plant response rating, Ryegrass, Italian” value [1, 14] was 70. For the same compound, the “Plant response rating, Ryegrass, Italian” value [1, 15] was 0, the “Plant response rating, Ryegrass, Italian” value [1, 16] was 0 and the “Plant response rating, Ryegrass, Italian” value [1, 17] was 5. For the same compound, the “Ryegrass, Italian plant response rating” value [1, 18] was 5, the “Plant response rating, Surinam Grass” value [2, 12] was 75 and the “Plant response rating, Surinam Grass” value [2, 13] was 80. For the same compound, the “Plant response rating, Surinam Grass” value [2, 14] was 90, the “Plant response rating, Surinam Grass” value [2, 15] was 10 and the “Plant response rating, Surinam Grass” value [2, 16] was 65. The “Plant response rating, Surinam Grass” value [2, 17] was 98, the “Surinam Grass plant response rating” value [2, 18] was 100 and the “Plant response rating, Bermudagrass” value [3, 12] was 70. The “Plant response rating, Bermudagrass” value [3, 13] was 80, the “Plant response rating, Bermudagrass” value [3, 19] was 95 and the “Plant response rating, Bermudagrass” value [3, 14] was 100. For the same compound, the “Plant response rating, Bermudagrass” value [3, 15] was 98, the “Plant response rating, Bermudagrass” value [3, 16] was 100 and the “Plant response rating, Bermudagrass” value [3, 17] was 100. For the same compound, the “Bermudagrass plant response rating” value ([3]; Preemergence, 250 g ai/ha, 0 to 100 scale, 0 no effect, 100 complete control) was 100, the “Plant response rating, Blackgrass” value [4, 12] was 0 and the “Plant response rating, Blackgrass” value [4, 13] was 0. For the same compound, the “Plant response rating, Blackgrass” value [4, 19] was 5, the “Plant response rating, Blackgrass” value [4, 14] was 5 and the “Plant response rating, Blackgrass” value [4, 15] was 0. For the same compound, the “Plant response rating, Blackgrass” value [4, 16] was 0, the “Plant response rating, Blackgrass” value [4, 17] was 0 and the “Blackgrass plant response rating” value [4, 18] was 20. The “Plant response rating, Cocklebur” value [5, 16] was 0, the “Plant response rating, Cocklebur” value [5, 17] was 90 and the “Cocklebur plant response rating” value [5, 18] was 100. The “Plant response rating, Bromegrass, Downy” value [6, 12] was 5, the “Plant response rating, Bromegrass, Downy” value [6, 13] was 15 and the “Plant response rating, Bromegrass, Downy” value [6, 19] was 20. For the same compound, the “Plant response rating, Bromegrass, Downy” value [6, 14] was 30, the “Plant response rating, Bromegrass, Downy” value [6, 15] was 0 and the “Plant response rating, Bromegrass, Downy” value [6, 16] was 0. The “Plant response rating, Bromegrass, Downy” value [6, 17] was 0, the “Bromegrass, Downy plant response rating” value [6, 18] was 0 and the “Plant response rating, Kochia” value (kochia (Kochia scoparia); [20]) was 35. The “Plant response rating, Kochia” value (kochia (Kochia scoparia); 62 g ai/ha, scale 0 to 100 (0 no effect, 100 complete control)) was 85, the “Plant response rating, Kochia” value (kochia (Kochia scoparia); [21]) was 100 and the “Plant response rating, Kochia” value (kochia (Kochia scoparia); [22]) was 100. For the same compound, the “Plant response rating, Crabgrass, Large” value [7, 12] was 40, the “Plant response rating, Crabgrass, Large” value [7, 13] was 45 and the “Plant response rating, Crabgrass, Large” value [7, 19] was 70. For the same compound, the “Plant response rating, Crabgrass, Large” value [7, 14] was 90, the “Plant response rating, Crabgrass, Large” value [7, 15] was 0 and the “Plant response rating, Crabgrass, Large” value [7, 16] was 20. For the same compound, the “Plant response rating, Crabgrass, Large” value [7, 17] was 65, the “Crabgrass, Large plant response rating” value [7, 18] was 98 and the “Plant response rating, Morningglory” value [8, 12] was 70. For the same compound, the “Plant response rating, Morningglory” value [8, 13] was 70, the “Plant response rating, Morningglory” value [8, 19] was 80 and the “Plant response rating, Morningglory” value [8, 14] was 98. The “Plant response rating, Morningglory” value [8, 15] was 0, the “Plant response rating, Morningglory” value [8, 16] was 0 and the “Plant response rating, Morningglory” value [8, 17] was 15. For the same compound, the “Morningglory plant response rating” value [8, 18] was 65, the “Plant response rating, Ragweed” value [9, 12] was 95 and the “Plant response rating, Ragweed” value [9, 13] was 95. The “Plant response rating, Ragweed” value [9, 14] was 100, the “Plant response rating, Ragweed” value [9, 15] was 85 and the “Plant response rating, Ragweed” value [9, 16] was 95. The “Plant response rating, Ragweed” value [9, 17] was 98, the “Ragweed plant response rating” value [9, 18] was 100 and the “Plant response rating, Wheat” value [10, 12] was 0. For the same compound, the “Plant response rating, Wheat” value [10, 13] was 0, the “Plant response rating, Wheat” value [10, 14] was 0 and the “Plant response rating, Wheat” value [10, 15] was 0. For the same compound, the “Plant response rating, Wheat” value [10, 16] was 0, the “Plant response rating, Wheat” value [10, 17] was 0 and the “Wheat plant response rating” value [10, 18] was 0. The “Plant response rating, Oat, Wild” value (wild oat (Avena fatua); [12]) was 40, the “Plant response rating, Oat, Wild” value (wild oat (Avena fatua); [13]) was 45 and the “Plant response rating, Oat, Wild” value (wild oat (Avena fatua); [14]) was 60. The “Plant response rating, Oat, Wild” value (wild oat (Avena fatua); [15]) was 0, the “Plant response rating, Oat, Wild” value (wild oat (Avena fatua); [16]) was 0 and the “Plant response rating, Oat, Wild” value (wild oat (Avena fatua); [17]) was 0. For the same compound, the “Oat, Wild plant response rating” value (wild oat (Avena fatua); [18]) was 0, the “Plant response rating, Cupgrass, Woolly” value [11, 12] was 40 and the “Plant response rating, Cupgrass, Woolly” value [11, 13] was 45. For the same compound, the “Plant response rating, Cupgrass, Woolly” value [11, 19] was 60, the “Plant response rating, Cupgrass, Woolly” value [11, 14] was 80 and the “Plant response rating, Cupgrass, Woolly” value [11, 15] was 0. For the same compound, the “Plant response rating, Cupgrass, Woolly” value [11, 16] was 0, the “Plant response rating, Cupgrass, Woolly” value [11, 17] was 65 and the “Cupgrass, Woolly plant response rating” value [11, 18] was 85.
For `Cc1ccc(F)cc1-n1c(-c2cccc(Cl)c2)ncc(C(=O)C2=C(O)CCCC2=O)c1=O` [Compound 157], the “Plant response rating, Ryegrass, Italian” value [1, 12] was 10, the “Plant response rating, Ryegrass, Italian” value [1, 19] was 30 and the “Plant response rating, Ryegrass, Italian” value [1, 14] was 35. The “Plant response rating, Surinam Grass” value [2, 12] was 75, the “Plant response rating, Surinam Grass” value [2, 19] was 98 and the “Plant response rating, Surinam Grass” value [2, 14] was 100. The “Bermudagrass plant response rating (0 to 100 scale)” value [3, 23] was 90, the “Plant response rating, Bermudagrass” value [3, 12] was 75 and the “Plant response rating, Bermudagrass” value [3, 19] was 100. For the same compound, the “Plant response rating, Bermudagrass” value [3, 14] was 100, the “Blackgrass plant response rating (0 to 100 scale)” value [4, 23] was 5 and the “Plant response rating, Blackgrass” value [4, 12] was 0. For the same compound, the “Plant response rating, Blackgrass” value [4, 19] was 10, the “Plant response rating, Blackgrass” value [4, 14] was 40 and the “Plant response rating, Cocklebur” value [5, 12] was 100. For the same compound, the “Plant response rating, Cocklebur” value [5, 19] was 100, the “Plant response rating, Cocklebur” value [5, 14] was 100 and the “Bromegrass, Downy plant response rating (0 to 100 scale)” value [6, 23] was 40. For the same compound, the “Plant response rating, Bromegrass, Downy” value [6, 12] was 40, the “Plant response rating, Bromegrass, Downy” value [6, 19] was 60 and the “Plant response rating, Bromegrass, Downy” value [6, 14] was 65. The “Plant response rating, Kochia” value (kochia (Kochia scoparia); [20]) was 0, the “Plant response rating, Kochia” value (kochia (Kochia scoparia); [21]) was 10 and the “Plant response rating, Kochia” value (kochia (Kochia scoparia); [22]) was 45. The “Plant response rating, Crabgrass, Large” value [7, 12] was 80, the “Plant response rating, Crabgrass, Large” value [7, 19] was 98 and the “Plant response rating, Crabgrass, Large” value [7, 14] was 100. For the same compound, the “Plant response rating, Morningglory” value [8, 12] was 20, the “Plant response rating, Morningglory” value [8, 19] was 95 and the “Plant response rating, Morningglory” value [8, 14] was 100. The “Plant response rating, Ragweed” value [9, 12] was 90, the “Plant response rating, Ragweed” value [9, 19] was 100 and the “Plant response rating, Ragweed” value [9, 14] was 100. The “Plant response rating, Wheat” value [10, 12] was 0, the “Plant response rating, Wheat” value [10, 19] was 20 and the “Plant response rating, Wheat” value [10, 14] was 30. The “Plant response rating, Oat, Wild” value (wild oat (Avena fatua); [12]) was 30, the “Plant response rating, Oat, Wild” value (wild oat (Avena fatua); [19]) was 60 and the “Plant response rating, Oat, Wild” value (wild oat (Avena fatua); [14]) was 70. The “Plant response rating, Cupgrass, Woolly” value [11, 12] was 85, the “Plant response rating, Cupgrass, Woolly” value [11, 19] was 98 and the “Plant response rating, Cupgrass, Woolly” value [11, 14] was 98.
